Assay results published in patent publication US6982348B2, “Aminoethanol derivatives” (Takeda Pharmaceutical Company Limited, priority 2001, dated 2006).

Row | melting point [°C] | Compound
1 | 162 to 163 | COc1ccc(-c2ccc([C@H](O)[C@@H](Cc3cccc(OC(F)(F)C(F)F)c3)NC(=O)c3cccc4c3C=CCCC4)cc2)cc1 (racemic) [Example 297, N-[(1RS,2SR)-2-hydroxy-2-(4′-methoxy[1,1′-biphenyl]-4-yl)-1-[3-(1,1,2,2-tetrafluoroethoxy)benzyl]ethyl]-6,7-dihydro-5H-benzo[a]cycloheptene-1-carboxamide]
2 | 102 to 104 | CC(C)(F)C(F)c1cccc(C[C@@H](NC(=O)c2cccc3c2C=CCCC3)[C@@H](O)c2ccc(F)cc2)c1 (mixture of isomers) [Example 342, N-[(1RS,2SR)-1-[3-(1,2-difluoro-2-methylpropyl)benzyl]-2-(4-fluorophenyl)-2-hydroxyethyl]-6,7-dihydro-5H-benzo[a]cycloheptene-1-carboxamide]
3 | 161 to 162 | CC(C)Oc1cccc(C[C@@H](NC(=O)c2cccc3c2C=CCCC3)[C@@H](O)c2ccc(F)cc2)c1 (racemic) [Example 282, N-[(1RS,2SR)-2-(4-fluorophenyl)-2-hydroxy-1-(3-isopropoxybenzyl)ethyl]-6,7-dihydro-5H-benzo[a]cycloheptene-1-carboxamide]
4 | 95 to 96 | CC(C)(C)OC(=O)N[C@H](Cc1ccc(C(F)(F)F)cc1)[C@H](O)c1ccc(F)cc1 (racemic) [Example 24, 1,1-dimethylethyl(1RS,2RS)-2-(4-fluorophenyl)-2-hydroxy-1-((4-(trifluoromethyl)phenyl)methyl)ethylcarbamate]
5 | 219 to 220 | O=C(N[C@H](Cc1ccc2c(c1)OC(F)(F)O2)[C@@H](O)c1ccc(F)cc1)c1ccc(F)c2ccccc12 (racemic) [Example 167, N-[(1RS,2SR)-1-[(2,2-difluoro-1,3-benzodioxol-5-yl)methyl]-2-(4-fluorophenyl)-2-hydroxyethyl]-4-fluoronaphthalene-1-carboxamide]
6 | 188 to 189 | O=C(N[C@H](Cc1ccc(C(F)(F)F)cc1)[C@@H](O)c1ccc(Cl)nc1)c1ccc(F)c2ccccc12 (racemic) [Example 202, N-((1RS,2SR)-2-(6-chloro-3-pyridyl)-2-hydroxy-1-((4-(trifluoromethyl)phenyl)methyl)ethyl)-4-fluoro-1-naphthalenecarboxamide]
7 | 129 to 131 | Cn1cc(C(=O)N[C@H](Cc2ccc(C(F)(F)F)cc2)[C@@H](O)c2ccc(F)cc2)c2ccccc21 (racemic) [Example 98, N-[(1RS,2SR)-2-(4-fluorophenyl)-2-hydroxy-1-[4-(trifluoromethyl)benzyl]ethyl]-1-methyl-1H-indole-3-carboxamide]
8 | 214 to 216 | O=C(N[C@H](Cc1ccc(C(F)(F)F)cc1)[C@@H](O)c1ccc(F)cc1)c1cccc2ccccc12 (racemic) [Example 35, N-[(1RS,2SR)-2-(4-fluorophenyl)-2-hydroxy-1-[4-(trifluoromethyl)benzyl]ethyl]naphthalene-1-carboxamide]
9 | 126 to 127 | O=C(CCc1ccccc1)N[C@H](Cc1ccc(C(F)(F)F)cc1)[C@@H](O)c1ccc(F)cc1F (racemic) [Example 182, N-((1RS,2SR)-2-(2,4-difluorophenyl)-2-hydroxy-1-((4-(trifluoromethyl)phenyl)methyl)ethyl)-3-phenylpropanamide]
10 | 149 to 150 | O=C(CCc1ccccc1)N[C@H](Cc1ccc(C(F)(F)F)cc1)[C@@H](O)c1ccc(Cl)nc1 (racemic) [Example 203, N-((1RS,2SR)-2-(6-chloro-3-pyridyl)-2-hydroxy-1-((4-(trifluoromethyl)phenyl)methyl)ethyl)-3-phenylpropanamide]
11 | 119 to 120 | O=C(O)COc1ccc([C@@H](O)[C@H](Cc2cccc(OC(F)(F)C(F)F)c2)NC(=O)c2cccc3c2C=CCCC3)cc1 (racemic) [Example 251, (4-{(1RS,2SR)-2-[(6,7-dihydro-5H-benzo[a][7]annulen-1-ylcarbonyl)amino]-1-hydroxy-3-[3-(1,1,2,2-tetrafluoroethoxy)phenyl]propyl}phenoxy)acetic acid]
12 | 189 to 192 | CC(C)c1ccc(C[C@@H](NC(=O)c2ccc(F)c3ccccc23)[C@@H](O)c2ccc(F)cc2)cc1 (racemic) [Example 154, 4-fluoro-N-[(1RS,2SR)-2-(4-fluorophenyl)-2-hydroxy-1-(4-isopropylbenzyl)ethyl]naphthalene-1-carboxamide]
13 | 230 to 231 | O=C(N[C@H](Cc1ccc(OC(F)(F)F)cc1)[C@@H](O)c1ccc(F)cc1)c1ccc(F)c2ccccc12 (racemic) [Example 134, 4-fluoro-N-[(1RS,2SR)-2-(4-fluorophenyl)-2-hydroxy-1-[4-(trifluoromethoxy)benzyl]ethyl]naphthalene-1-carboxamide]
14 | 169 to 170 | O=C(NC(Cc1ccc(C(F)(F)F)cc1)C(O)c1ccc(F)cc1)C12CC3CC(CC(C3)C1)C2 (racemic) [Example 15, N-[2-(4-fluorophenyl)-2-hydroxy-1-[[4-(trifluoromethyl)phenyl]methyl]ethyl]adamantane-1-carboxamide]
15 | 176 to 177 | O=C(N[C@H](Cc1cccc(OC(F)(F)C(F)F)c1)[C@@H](O)c1ccc(C(=O)N2CCCCC2)cc1)c1cccc2c1C=CCCC2 (racemic) [Example 313, N-[(1RS,2SR)-2-hydroxy-2-[4-(piperidinocarbonyl)phenyl]-1-[3-(1,1,2,2-tetrafluoroethoxy)benzyl]ethyl]-6,7-dihydro-5H-benzo[a]cycloheptene-1-carboxamide]
16 | 127 to 128 | CC(C)(C)OC(=O)N[C@H](Cc1cccc(OC(F)(F)C(F)F)c1)[C@@H](O)c1csc(-c2ccccc2)n1 (racemic) [Example 361, tert-butyl (1RS,2RS)-2-hydroxy-2-(2-phenyl-1,3-thiazol-4-yl)-1-[3-(1,1,2,2-tetrafluoroethoxy)benzyl]ethylcarbamate]
17 | 170 to 171 | CC(F)(F)c1cccc(C[C@@H](NC(=O)c2cccc3c2C=CCCC3)[C@@H](O)c2ccc(F)cc2)c1 (racemic) [Example 360, N-[(1RS,2SR)-1-[3-(1,1-difluoroethyl)benzyl]-2-(4-fluorophenyl)-2-hydroxyethyl]-6,7-dihydro-5H-benzo[a]cycloheptene-1-carboxamide]
18 | 126 to 127 | O=C(CCc1ccccc1)N[C@H](Cc1ccc(C(F)(F)F)c(F)c1)[C@@H](O)c1ccc(F)cc1 (racemic) [Example 157, N-((1RS,2SR)-2-(4-fluorophenyl)-1-((3-fluoro-4-(trifluoromethyl)phenyl)methyl)-2-hydroxyethyl)-3-phenylpropanamide]
19 | 123 to 124 | CC(C)(C)OC(=O)N[C@H](Cc1cccc(OC(F)(F)C(F)F)c1)[C@@H](O)c1ccc(Oc2cccnc2)cc1 (racemic) [Example 260, tert-butyl (1RS,2SR)-2-hydroxy-2-[4-(pyridin-3-yloxy)phenyl]-1-[3-(1,1,2,2-tetrafluoroethoxy)benzyl]ethylcarbamate]
20 | 147 to 148 | O=C(CCCc1ccccc1)N[C@H](Cc1ccc(F)cc1)[C@@H](O)c1ccc(F)cc1 (racemic) [Example 147, N-((1RS,2SR)-2-(4-fluorophenyl)-1-((4-fluorophenyl)methyl)-2-hydroxyethyl)-4-phenylbutyramide]
21 | 143 to 144 | CCOC(=O)N[C@H](Cc1ccc(C(F)(F)F)cc1)[C@@H](O)c1ccc(F)cc1 (racemic) [Example 115, ethyl N-[(1RS,2SR)-2-(4-fluorophenyl)-2-hydroxy-1-[4-(trifluoromethyl)benzyl]ethyl]carbamate]
22 | 134 to 135 | O=C(N[C@H](Cc1ccc(C(F)(F)F)cc1)[C@H](O)c1ccc(F)cc1)c1cccc2ccccc12 (racemic) [Example 26, N-((1RS,2RS)-2-(4-fluorophenyl)-2-hydroxy-1-((4-(trifluoromethyl)phenyl)methyl)ethyl)-1-naphthalenecarboxamide]
23 | 212 to 213 | O=C(N[C@@H](Cc1ccc(C(F)(F)F)cc1)[C@H](O)c1ccc(F)cc1)c1ccc(C(F)F)c2ccccc12 [Example 64, 4-(difluoromethyl)-N-((1S,2R)-2-(4-fluorophenyl)-2-hydroxy-1-((4-(trifluoromethyl)phenyl)methyl)ethyl)-1-naphthalenecarboxamide]
24 | 102 to 103 | CC(C)(C)c1ccc(C[C@@H](NC(=O)c2cccc3c(F)cccc23)[C@@H](O)c2cccc(Cl)c2)cc1 (racemic) [Example 275, N-[(1RS,2SR)-1-(4-tert-butylbenzyl)-2-(3-chlorophenyl)-2-hydroxyethyl]-5-fluoro-1-naphthamide]
25 | 191 to 192 | CC1(C)COc2ccc(C[C@@H](NC(=O)c3cccc4c(Cl)cccc34)[C@@H](O)c3cccc(Cl)c3)cc21 (racemic) [Example 378, 5-chloro-N-{(1RS,2SR)-2-(3-chlorophenyl)-1-[(3,3-dimethyl-2,3-dihydro-1-benzofuran-5-yl)methyl]-2-hydroxyethyl}-1-naphthamide]
26 | 229 to 231 | O=C(N[C@H](Cc1ccc(C(F)(F)F)cc1)[C@@H](O)c1ccc(F)cc1)c1ccc(Br)c2ccccc12 (racemic) [Example 43, 4-bromo-N-[(1RS,2SR)-2-(4-fluorophenyl)-2-hydroxy-1-[4-(trifluoromethyl)benzyl]ethyl]naphthalene-1-carboxamide]
27 | 251 to 252 | O=C(N[C@H](Cc1ccc(C(F)(F)F)cc1)[C@@H](O)c1ccc(F)cc1)c1c2ccccc2cc2ccccc12 (racemic) [Example 84, N-((1RS,2SR)-2-(4-fluorophenyl)-2-hydroxy-1-((4-(trifluoromethyl)phenyl)methyl)ethyl)-9-anthracenecarboxamide]

Row | Compound | melting point [°C]
28 | CC(C)(C)OC(=O)Nc1ccc([C@H](O)[C@@H](Cc2cccc(OC(F)(F)C(F)F)c2)NC(=O)c2cccc3c2C=CCCC3)cc1 (racemic) [Example 321, N-[(1RS,2SR)-2-[4-[(tert-butoxycarbonyl)amino]phenyl]-2-hydroxy-1-[3-(1,1,2,2-tetrafluoroethoxy)benzyl]ethyl]-6,7-dihydro-5H-benzo[a]cycloheptene-1-carboxamide] | 153 to 156
